These results are taken from publication PMC8950828 (Viruses, 2022).

Where two headings read alike, the source gives them in different places.

The subject of data set [1] is MERS-CoV. Format: cell-based, Middle East respiratory syndrome coronavirus.
The test system of data set [2] is 5′-UTRs of HCoV-229E, MERS-CoV and SARS-CoV-2. The data set is classed as cell-based, human.
Data set [3] has as its system 5′-UTR of HEV (HEVgt3c). Format: cell-based, human.
In data set [4] the test system is M2 macrophages. The following applies: human.
In data set [5] the test system is monocyte-derived dendritic cells (MdDCs). The following applies: human.
For data set [6], the system named is T cells.
In data set [7] the test system is NHBE cells.
The test system of data set [8] is HCoV-229E. The following applies: cited from earlier work.
Data set [9] deals with MERS-CoV. The following applies: cited from earlier work.
Data set [10] relates to SARS-CoV-2. The following applies: cited from earlier work.
Data set [11] can be described thus: in vitro. The following applies: human.
Data set [12] can be described thus: in vitro. The following applies: human. This is another data set of the same source.
Data set [13] is described as follows: in vitro. The following applies: human. This is another data set of the same source.
Data set [14] can be described thus: in vitro. The following applies: human. The source holds these as a separate data set.
A short description of data set [15]: in vitro. The following applies: human. The source holds these as a separate data set.
The subject of data set [16] is primary human immune cells (monocytes, M1 macrophages, M2 macrophages, MdDCs and T cells). In words: Orangu cell viability assay, primary human immune cells overall. The following applies: all tested immune cell types, 0.5–100 nM.
The subject of data set [17] is HCoV-229E. In words: microbe, parasite or virus in culture. Format: cell-based, human coronavirus 229E.
Data set [18] has as its system MERS-CoV. The data set is described as follows: microbe, parasite or virus in culture. The data set is classed as cell-based, Middle East respiratory syndrome coronavirus.
Data set [19] deals with SARS-CoV-2. The data set is described as follows: microbe, parasite or virus in culture. Format: cell-based.
In data set [20] the test system is human monocytes.
For data set [21], the system named is MRC-5 cells.
Data set [22] relates to SARS-CoV-2. The following applies: cited from earlier work. The source holds these as a separate data set.

On to `CONC(=O)[C@H]1[C@@H](O)[C@@]2(O)c3c(OC)cc(OC)cc3O[C@@]2(c2ccc(OC)cc2)[C@@H]1c1ccccc1` [CR-1-31-B], for which, in data set [1], the “effect on the replication of MERS-CoV” value is “no significant effect”. Besides, the “reduction of viral replication” value in [1] was “nearly undetectable levels”. Moreover, the “translation efficiency (reporter gene expression) with coronavirus 5′-UTRs” value (“translation efficiency” for short) in data set [2] is listed as “sensitive”. In addition, in data set [3], the “translation inhibition of HEVgt3c 5′-UTR reporter” value is recorded as “translation inhibition only in the presence of a polypurine stretch”. Further, the “translation inhibition of HEVgt3c-Purine” value in data set [3] is given as “regain translation inhibition”. For the same compound, the reduction of viability entry in data set [4] and in data set [5] was “approximately 50%” each time. In [6], the effect on viability entry is on record as “not affected”. The TEER signal reduction in data set [7] (human) was ~ 25%. The values for the half-maximal effective concentration (EC50) in data set [8], in data set [9] and in data set [10] were 2.9 nM, 1.9 nM and 1.8 nM, respectively.
Take `CONC(=O)[C@@H]1[C@H](O)[C@]2(O)c3c(OC)cc(OC)cc3O[C@]2(c2ccc(OC)cc2)[C@H]1c1ccccc1` [CR-1-30-B]: the CC50 in data set [11], in [12], in data set [13], in data set [14] and in [15] was above 100 nM throughout. Further, the “impact on cell viability” value in data set [16] was “essentially no impact on cell viability at all”.
In turn, `COc1cc2c(c(OC)n1)[C@]1(O)[C@H](O)[C@H](CN(C)C)[C@@H](c3ccccc3)[C@]1(c1ccc(C#N)cc1)O2` [Zotatifin] yielded a concentration for a half-maximal effect (EC50) in data set [17] of 3.86 nM. The same compound had a concentration for a half-maximal effect (EC50) in data set [17] (Human coronavirus 229E, MRC5) of 3.9 nM. For the same compound, a half-maximal response in data set [18] (EC50) required 4.31 nM. In addition, in data set [18] (Middle East respiratory syndrome-related coronavirus, MRC5), the EC50 amounted to 4.3 nM. Also, in [19], the half-maximal effective concentration (EC50) is 41.6 nM and the “fold less efficient (higher EC50) than CR-1-31-B against SARS-CoV-2” value is on record as “around 20 fold”. Also, a half-maximal effect in data set [19] (Severe acute respiratory syndrome coronavirus 2, Vero C1008) (EC50) was put at 41.6 nM. For the same compound, in data set [1], the “effect on the replication of MERS-CoV” value is “no significant effect” and the “reduction of viral replication” value is “about two orders of magnitude”. In addition, in data set [2], the “translation efficiency” value is on record as “sensitive” and the “translation inhibition compared with 10 nM of silvestrol or CR-1-31-B” value is reported as “slightly weaker”. Moreover, in data set [3], the “translation inhibition of HEVgt3c 5′-UTR reporter” value is reported as “translation inhibition”, the “translation inhibition of HEVgt3c-Purine” value was “regain translation inhibition” and the “translation inhibition of destabilized variants” value was “loss of the inhibitory effects”. In addition, the “viability reduced to” value in data set [20] was “approximately 75%”. Besides, the cytotoxicity result in data set [21] is reported as “no significant cytotoxicity”. Moreover, the “cytotoxicity by TEER” value in [7] is on record as “no significant cytotoxicity”. Further, the EC90 in data set [22] is 37 nM.
For `COC(=O)[C@H]1[C@@H](O)[C@@]2(O)c3c(OC)cc(O[C@@H]4O[C@@H]([C@H](O)CO)CO[C@H]4OC)cc3O[C@@]2(c2ccc(OC)cc2)[C@@H]1c1ccccc1` [Silvestrol], the “translation efficiency” value in data set [2] is on record as “sensitive”. Further, the “translation inhibition of HEVgt3c 5′-UTR reporter” value in data set [3] was “either a stable hairpin substrate or a polypurine stretch is sufficient”. Besides, the “translation inhibition of HEVgt3c-Purine” value in data set [3] is on record as “regain translation inhibition”. In data set [3], the “translation inhibition of destabilized variants” value was “loss of the inhibitory effects”. Further, the reduction of viability entry in data set [4] and in [5] was “approximately 50%” in each case. In data set [6], the effect on viability result was “not affected”. For the same compound, the concentration for a half-maximal effect (EC50) is 3 nM in data set [8] and 1.3 nM in data set [9].

Usually EC50 stands for the concentration needed to bring the measured effect to its halfway point. The EC90 is the point of the concentration-response curve where the effect stands at 90%.
